Where two headings read alike, the source gives them in different places.
What was measured:
Assay type in all cases: binding
[1] = target: T1, HeLa cell extract proteins (Homo sapiens, UniProt P36542)
T1 construct: endogenous in cells; host or cells: HeLa cell extract
T1 sequence (P36542 26-298): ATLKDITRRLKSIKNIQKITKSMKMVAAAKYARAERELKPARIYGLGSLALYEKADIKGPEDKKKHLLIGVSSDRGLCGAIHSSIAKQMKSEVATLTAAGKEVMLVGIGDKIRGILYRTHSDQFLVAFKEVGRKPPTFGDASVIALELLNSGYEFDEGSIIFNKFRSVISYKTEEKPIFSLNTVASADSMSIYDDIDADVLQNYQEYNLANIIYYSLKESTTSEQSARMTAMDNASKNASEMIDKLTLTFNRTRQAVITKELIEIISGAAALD

[2] = target: T2, HeLa cell extract proteins (Homo sapiens, UniProt P46977)
T2 construct: endogenous in cells; host or cells: HeLa cell extract
T2 sequence (P46977 1-705): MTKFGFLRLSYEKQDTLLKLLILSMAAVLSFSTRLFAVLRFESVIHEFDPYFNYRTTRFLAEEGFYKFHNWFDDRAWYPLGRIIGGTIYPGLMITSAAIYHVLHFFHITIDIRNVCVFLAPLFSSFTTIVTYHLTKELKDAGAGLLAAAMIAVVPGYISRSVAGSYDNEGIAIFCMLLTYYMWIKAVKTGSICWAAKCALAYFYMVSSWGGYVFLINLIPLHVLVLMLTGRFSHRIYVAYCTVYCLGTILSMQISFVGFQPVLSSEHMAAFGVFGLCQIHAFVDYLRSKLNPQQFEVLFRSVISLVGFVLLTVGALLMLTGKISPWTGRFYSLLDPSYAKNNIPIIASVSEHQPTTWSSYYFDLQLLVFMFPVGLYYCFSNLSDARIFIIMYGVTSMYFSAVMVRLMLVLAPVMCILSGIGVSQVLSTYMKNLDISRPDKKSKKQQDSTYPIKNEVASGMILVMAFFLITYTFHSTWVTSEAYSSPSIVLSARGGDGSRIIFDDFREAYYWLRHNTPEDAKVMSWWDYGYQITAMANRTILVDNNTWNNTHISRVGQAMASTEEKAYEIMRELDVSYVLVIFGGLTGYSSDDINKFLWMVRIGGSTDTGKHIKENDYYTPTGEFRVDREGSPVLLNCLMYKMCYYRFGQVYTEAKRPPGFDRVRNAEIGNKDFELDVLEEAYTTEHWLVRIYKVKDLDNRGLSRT

[3] = target: T3, HeLa cell extract proteins (Homo sapiens, UniProt Q9Y573)
T3 construct: endogenous in cells; host or cells: HeLa cell extract
T3 sequence (Q9Y573 1-584): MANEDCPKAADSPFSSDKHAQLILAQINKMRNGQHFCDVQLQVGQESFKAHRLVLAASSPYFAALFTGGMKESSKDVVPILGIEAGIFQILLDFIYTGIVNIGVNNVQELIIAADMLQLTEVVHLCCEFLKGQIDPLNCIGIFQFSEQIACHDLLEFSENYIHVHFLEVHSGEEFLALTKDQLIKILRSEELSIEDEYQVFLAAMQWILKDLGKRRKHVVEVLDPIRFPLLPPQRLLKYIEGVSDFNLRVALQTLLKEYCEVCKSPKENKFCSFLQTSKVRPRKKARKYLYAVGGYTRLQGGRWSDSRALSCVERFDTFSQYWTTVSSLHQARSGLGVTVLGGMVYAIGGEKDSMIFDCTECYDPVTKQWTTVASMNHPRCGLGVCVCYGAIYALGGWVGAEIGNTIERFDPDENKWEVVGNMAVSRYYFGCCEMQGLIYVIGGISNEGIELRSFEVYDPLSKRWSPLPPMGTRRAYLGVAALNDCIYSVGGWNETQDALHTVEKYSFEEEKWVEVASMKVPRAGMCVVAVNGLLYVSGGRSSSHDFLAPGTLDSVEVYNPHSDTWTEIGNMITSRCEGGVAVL

[4] = target: T4, HeLa cell extract proteins (Homo sapiens, UniProt Q15293)
T4 construct: endogenous in cells; host or cells: HeLa cell extract
T4 sequence (Q15293 30-331): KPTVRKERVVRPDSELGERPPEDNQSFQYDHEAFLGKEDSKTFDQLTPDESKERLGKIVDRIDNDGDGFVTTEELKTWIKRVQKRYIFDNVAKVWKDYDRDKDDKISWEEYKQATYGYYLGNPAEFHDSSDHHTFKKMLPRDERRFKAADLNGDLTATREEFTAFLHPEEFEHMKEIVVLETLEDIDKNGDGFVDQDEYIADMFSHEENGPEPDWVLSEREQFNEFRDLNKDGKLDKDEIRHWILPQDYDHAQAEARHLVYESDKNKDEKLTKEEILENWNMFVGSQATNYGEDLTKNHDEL

[5] = target: T5, HeLa cell extract proteins (Homo sapiens, UniProt O95197)
T5 construct: endogenous in cells; host or cells: HeLa cell extract
T5 sequence (O95197 1-1032): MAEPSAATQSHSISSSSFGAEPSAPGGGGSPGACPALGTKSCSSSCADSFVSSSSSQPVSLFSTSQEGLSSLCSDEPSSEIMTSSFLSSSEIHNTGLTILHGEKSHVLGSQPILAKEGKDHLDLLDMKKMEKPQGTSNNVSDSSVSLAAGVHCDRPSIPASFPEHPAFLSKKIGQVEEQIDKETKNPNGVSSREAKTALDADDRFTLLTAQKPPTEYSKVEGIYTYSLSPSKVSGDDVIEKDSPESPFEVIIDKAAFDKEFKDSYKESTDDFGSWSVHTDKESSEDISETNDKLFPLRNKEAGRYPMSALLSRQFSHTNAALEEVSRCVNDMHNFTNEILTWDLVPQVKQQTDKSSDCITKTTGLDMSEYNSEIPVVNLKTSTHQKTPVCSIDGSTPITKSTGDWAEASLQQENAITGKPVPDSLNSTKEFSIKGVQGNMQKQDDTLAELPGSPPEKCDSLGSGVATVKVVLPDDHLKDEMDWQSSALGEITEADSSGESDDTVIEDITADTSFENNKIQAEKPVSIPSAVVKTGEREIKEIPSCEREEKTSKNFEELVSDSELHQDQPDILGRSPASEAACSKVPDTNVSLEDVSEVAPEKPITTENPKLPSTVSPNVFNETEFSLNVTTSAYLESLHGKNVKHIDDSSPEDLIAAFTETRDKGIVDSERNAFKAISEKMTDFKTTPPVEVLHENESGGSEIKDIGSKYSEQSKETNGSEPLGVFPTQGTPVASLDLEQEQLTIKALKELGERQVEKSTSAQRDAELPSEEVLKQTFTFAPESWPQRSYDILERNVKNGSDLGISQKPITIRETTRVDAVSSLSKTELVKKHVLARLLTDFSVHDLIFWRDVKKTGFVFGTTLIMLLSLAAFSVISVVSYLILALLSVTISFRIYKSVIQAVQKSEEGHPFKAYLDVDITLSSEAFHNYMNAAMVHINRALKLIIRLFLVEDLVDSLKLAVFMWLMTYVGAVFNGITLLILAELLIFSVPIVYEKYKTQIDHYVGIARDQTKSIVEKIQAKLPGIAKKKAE

[6] = HeLa, protein IPP (ACTIN-BINDING PROTEIN IPP)

| SMILES | fold changes relative to vehicle control ([1]; HeLa, captured protein ATP5C1) | fold changes relative to vehicle control ([2]; HeLa, protein STT3A) | fold changes relative to vehicle control [3, 6] | fold changes relative to vehicle control ([4]; HeLa, protein RCN1) | fold changes relative to vehicle control ([5]; protein RTN3, HeLa) | fold changes relative to vehicle control [1] | fold changes relative to vehicle control [2] | fold changes relative to vehicle control [3] | fold changes relative to vehicle control [4] | fold changes relative to vehicle control [5] | fold changes relative to vehicle control ([1]; HeLa, protein ATP5C1) | fold changes relative to vehicle control ([3]; protein IPP, HeLa) | fold changes relative to vehicle control ([4]; captured protein RCN1, HeLa) |
| --- | --- | --- | --- | --- | --- | --- | --- | --- | --- | --- | --- | --- | --- |
| Nc1nc2c(c(=O)[nH]1)N(C=O)C(CNc1ccc(C(=O)N[C@@H](CCC(=O)O)C(=O)O)cc1)CN2 (some centres unmarked) [LEU, leucovorin] | 0.99 | 1.1 | 0.99 | 0.91 | 0.97 |  |  |  |  |  |  |  |  |
| Nc1nc2[nH]cc(CCc3ccc(C(=O)N[C@@H](CCC(=O)O)C(=O)O)cc3)c2c(=O)[nH]1 [PTX, pemetrexed] |  |  |  |  |  | 1.01 | 0.89 | 0.92 | 1.02 | 0.85 |  |  |  |
| CCCCCCOc1ccc(Cc2cnc(N)nc2N)cc1 [compound 1] |  | 0.96 |  |  | 1 |  |  |  |  |  | 1.05 | 1.03 | 0.9 |
| CCCCCCOc1cccc(Cc2cnc(N)nc2N)c1 [compound 2] |  | 1.08 |  |  | 1.14 |  |  |  |  |  | 0.9 | 1.05 | 1.05 |
| Nc1nc2cccc(-c3ccccc3)c2n1Cc1ccc(Cl)c(Cl)c1 [compound 3] |  | 1.36 |  |  | 0.9 |  |  |  |  |  | 0.89 | 0.93 | 0.89 |
| NCCOCCOCC(=O)Nc1nc2ncc(CNc3ccc(C(=O)NC(CCC(=O)O)C(=O)O)cc3)nc2c(=O)[nH]1 (centres unmarked) [compound 6] | 0.97 | 0.96 | 0.89 | 1.11 | 0.94 |  |  |  |  |  |  |  |  |
| NCCCNc1ccc(C(=O)NC(CCC(=O)O)C(=O)O)cc1 (centres unmarked) [compound 7] | 0.99 | 0.93 | 0.9 | 1.02 | 0.84 |  |  |  |  |  |  |  |  |
